This note sets out measurements from ChEMBL document CHEMBL2074141, “Comparison of lactate transport in astroglial cells and monocarboxylate transporter 1 (MCT 1) expressing Xenopus laevis oocytes. Expression of two different monocarboxylate transporters in astroglial cells and neurons” (J Biol Chem, 1997).

Holding throughout (assay type): functional, cell-based
Set-up in all cases: scale not given: the % may be the effect or the level left
Holding throughout (conditions): Oocyte

Test [1] addresses Monocarboxylate transporter 1 (Rattus norvegicus) (UniProt P53987). The experiment in a line: TP_TRANSPORTER: inhibition of lactate uptake (Lactate:0.1mM, pCMBS:1mM, preincubation with aminoxyacetate) in Xenopus laevis oocytes.
Test [2] deals with T1, Monocarboxylate transporter 1 (Rattus norvegicus) (UniProt P53987).
T1 sequence (whole entry): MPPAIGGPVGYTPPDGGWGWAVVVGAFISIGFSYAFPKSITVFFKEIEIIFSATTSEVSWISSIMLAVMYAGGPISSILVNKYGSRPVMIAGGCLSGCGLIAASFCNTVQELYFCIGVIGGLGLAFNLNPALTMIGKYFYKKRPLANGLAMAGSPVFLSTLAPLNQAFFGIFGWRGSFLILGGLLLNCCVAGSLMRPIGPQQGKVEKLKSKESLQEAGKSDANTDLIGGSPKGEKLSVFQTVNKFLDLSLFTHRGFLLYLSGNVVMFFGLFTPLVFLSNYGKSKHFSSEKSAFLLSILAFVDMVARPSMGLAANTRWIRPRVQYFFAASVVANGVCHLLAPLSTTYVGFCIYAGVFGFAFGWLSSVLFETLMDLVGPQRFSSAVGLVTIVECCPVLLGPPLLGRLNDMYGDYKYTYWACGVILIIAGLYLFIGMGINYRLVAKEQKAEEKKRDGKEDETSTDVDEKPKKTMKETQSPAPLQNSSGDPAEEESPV
As to the kind of experiment: TP_TRANSPORTER: inhibition of lactate uptake (Lactate:0.1mM, D,L-3-Hydroxybutyrate:50mM, preincubation with aminoxyacetate) in Xenopus laevis oocytes.

For test [3], the target named is T1, Monocarboxylate transporter 1 (Rattus norvegicus). As to the kind of experiment: TP_TRANSPORTER: inhibition of lactate uptake (Lactate:0.1mM, Pyruvate:1mM, preincubation with aminoxyacetate) in Xenopus laevis oocytes.
The target is the same in test [4]. The experiment in a line: TP_TRANSPORTER: inhibition of lactate uptake (Lactate:0.1mM, alpha-Ketoisocaproate:5mM, preincubation with aminoxyacetate) in Xenopus laevis oocytes.
Test [5] shares this target. As to the kind of experiment: TP_TRANSPORTER: inhibition of lactate uptake (Lactate:0.1mM, Acetoacetate:50mM, preincubation with aminoxyacetate) in Xenopus laevis oocytes.
Test [6] has the same target. The experiment in a line: TP_TRANSPORTER: inhibition of lactate uptake (Lactate:0.1mM, 4-CIN:5mM, preincubation with aminoxyacetate) in Xenopus laevis oocytes.

As to p-Chloromercuribenzenesulfonate, in test [1], the Activity was 18%. For `CC(O)CC(=O)O` (racemic), in test [2], the Activity is 7%. For the molecule `CC(=O)C(=O)O`, the Activity in test [3] is 23%. In the case of `CC(C)CC(=O)C(=O)O`, in test [4], the Activity was 13%. Take `CC(=O)CC(=O)O`: the Activity in test [5] was 13%. With `N#C/C(=C\c1ccc(O)cc1)C(=O)O`, in test [6], the Activity is 9%.
